Values quoted from earlier work as cited in KR20140130881A, “보리코나졸을 함유하는 안정한 주사용 조성물” (동아에스티 주식회사, priority 2013, dated 2014).
Converted amounts (≈) assume the structure as drawn.

aqueous solubility (pH 3, acidic solution): 200 µg/mL (≈ 573 µM) | solubility in water (water): 700 µg/mL (≈ 2000 µM)
Compound: C[C@@H](c1ncncc1F)[C@](O)(Cn1cncn1)c1ccc(F)cc1F [보리코나졸, (2R,3S)-2-(2,4-다이플루오로페닐)-3-(5-플루오로피리미딘-4-일)-1-(1H-1,2,4-트리아졸-1-일)부탄-2-올]
